The assay deals with c-myc pu22 DNA (c-myc G-quadruplex DNA) (DNA, G4) TGGGGAGGGTGGGGAGGGTGGGGAAGG
The assay is described as follows: UV-vis absorption titration (hypochromism). The following applies: 100 mM KCl; Tris-HCl, pH 7.2; 20 μM compound; hypochromism MLCT 14.6%, IL 38.9%; constant not given.

`C(#Cc1ccc(-c2nc3c4cccnc4c4ncccc4c3[nH]2)cc1)c1ccccc1.[Ru+2].c1ccc(-c2ccccn2)nc1.c1ccc(-c2ccccn2)nc1`: the binding entry was “yes”.

For the origin of these results see publication PMC4933878 (2016).
